Where “and” joins values, the source holds several entries; their conditions need not be identical. Identical values can stand only once.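 Grown in 96-well plates, cells were treated for 48 hours with each compound at five concentrations. Insufficient inhibition: endpoint recorded as highest concentration tested. GI50 = concentration required for 50% inhibition of growth. TGI denotes the concentration required for complete inhibition of growth.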
What was measured:
Experiment in all cases: inhibition of tumour cell growth, NCI panel, 48 h
HCC-2998 colon = tested on: HCC-2998 colon
CCRF-CEM leukemia = tested on: CCRF-CEM leukemia
HL-60(TB) leukemia = tested on: HL-60(TB) leukemia
U251 CNS = tested on: U251 CNS
PC-3 prostate = tested on: PC-3 prostate
MALME-3M melanoma = tested on: MALME-3M melanoma
K-562 leukemia = tested on: K-562 leukemia
SNB-75 CNS = tested on: SNB-75 CNS
SW-620 colon = tested on: SW-620 colon
SF-539 CNS = tested on: SF-539 CNS

SMILES	GI50 (HCC-2998 colon)	TGI (HCC-2998 colon)	GI50 (CCRF-CEM leukemia)	TGI (CCRF-CEM leukemia) [µM]	GI50 (HL-60(TB) leukemia) [µM]	TGI (HL-60(TB) leukemia)	GI50 (U251 CNS)	TGI (U251 CNS)	GI50 (PC-3 prostate)	TGI (PC-3 prostate) [µM]	GI50 (MALME-3M melanoma)	TGI (MALME-3M melanoma)	GI50 (K-562 leukemia)	TGI (K-562 leukemia) [µM]	GI50 (SNB-75 CNS)	TGI (SNB-75 CNS)	GI50 (SW-620 colon)	TGI (SW-620 colon)	GI50 (SF-539 CNS)	TGI (SF-539 CNS)
Cn1cc(C2=C(c3cn(C)c4cc(N)ccc34)C(=O)NC2=O)c2ccccc21	1.5 µM	> 25 µM	1.02 µM	> 11.2	1.1	5.52 µM	1.41 µM	10.2 µM	2.92 µM	> 20.6	11 µM	> 22.3 µM	0.396 µM	> 23.8	0.252 µM	2.09 µM	1.5 µM	> 25 µM	0.568 µM	2.27 µM
CC(=O)Nc1ccc(/C=C2/NC(=S)N(/C=C3\C(=O)Oc4ccccc4C3=O)C2=O)cc1	–	> 100 µM	–	> 100	–	> 100 µM	–	> 100 µM	–	> 100	–	> 100 µM	–	> 100	–	63.1 µM	–	> 100 µM	–	> 100 µM
C/C(=N\NC(=S)N1CCN(c2ccccn2)CC1)c1nccs1	–	14.9 µM	0.00596 µM	0.256	0.00712	0.0419 µM and 0.0526 µM	–	9.8 µM	0.525 µM	17.4	–	18.5 µM	0.00649 µM	6.33	–	19.4 µM	–	20.2 µM	–	4.37 µM
CC(C)(C)n1cc(-c2ccnc(NCCCNS(=O)(=O)c3ccc(Br)cc3)c2)c(-c2cccc(O)c2)n1	1.92 µM	3.48 µM	2.26 µM	> 100	2.72	7.49 µM	1.65 µM	3.66 µM	1.6 µM	4.08	1.66 µM	3.24 µM	2.02 µM	> 100	1.76 µM	4.11 µM	1.83 µM	3.63 µM	1.7 µM	3.17 µM
CC[C@@]12C=CCN3CC[C@]4(c5cc(NC(=O)COc6cc(OCC(=O)Nc7cc8c(cc7OC)N(C)[C@H]7[C@@](O)(C(=O)OC)[C@H](OC(C)=O)[C@]9(CC)C=CCN%10CC[C@]87[C@@H]%109)cc7oc(-c8ccccc8)cc(=O)c67)c(OC)cc5N(C)[C@@H]4[C@](O)(C(=O)OC)[C@H]1OC(C)=O)[C@H]32	1.89 µM	3.99 µM	3.51 µM	> 100	20.4	> 100 µM	3.29 µM	> 100 µM	2.91 µM	> 100	> 100 µM	> 100 µM	3.86 µM	> 100	3.41 µM	> 100 µM	3.89 µM	26.2 µM	4.62 µM	> 100 µM
CC[C@]1(O)C[C@@H]2CN(CCc3c([nH]c4ccccc34)[C@@](C(=O)OC)(c3cc4c(cc3OC)N(C)[C@H]3[C@@](O)(C(N)=O)[C@H](O)[C@]5(CC)[C@@H]6C[C@@H]6CN6CC[C@]43[C@@H]65)C2)C1	0.00413 µM	> 29 µM	< 0.00333 µM	> 28.8	< 0.00333	0.013 µM	< 0.00333 µM	> 33.3 µM	< 0.00333 µM	> 33.3	4.9 µM	32.1 µM	< 0.00333 µM	> 33.3	< 0.00333 µM	20.6 µM	< 0.00333 µM	> 33.3 µM	< 0.00333 µM	0.0143 µM
COc1nc(C)cc2c(=O)n(-c3ccccc3)n(CC(O)CN3CCN(c4ccc(Cl)cc4)CC3)c(=O)c12 (configuration not stated)	> 50 µM	> 50 µM	> 50 µM	> 50	> 50	> 50 µM	30.6 µM	> 50 µM	25.9 µM	> 50	> 50 µM	> 50 µM	> 50 µM	> 50	10.1 µM	27.8 µM	> 50 µM	> 50 µM	22.7 µM	> 50 µM
CC(=O)c1cc(-c2ccccc2N)n(-c2ccc3c(c2)OCO3)c1C	0.304 µM	16.3 µM	0.336 µM	> 100	0.217	0.592 µM	0.277 µM	> 100 µM	0.317 µM	> 100	2.88 µM	> 83.3 µM	0.247 µM	> 100	0.255 µM	> 93.9 µM	0.184 µM	> 100 µM	0.181 µM	0.487 µM
COc1cc2c(c(OC)c1OC)-c1ccc(O)c(=O)cc1[C@@H](NC(C)=O)CC2	7.95 µM	> 100 µM and 34.4 µM	3.67 µM	> 100	3.31	15.6 µM and 32.7 µM	5.93 µM	> 100 µM and 35.4 µM	15.1 µM	> 100	19.2 µM	97.7 µM	6.91 µM	> 100	16.3 µM	> 100 µM	7 µM	> 100 µM and 82.5 µM	6.08 µM	45.5 µM and 44 µM
COc1cc2c3c(c1OC)C1(C=CC(=O)C=C1)CC3NCC2 (configuration not stated)	–	> 100 µM	–	> 100	–	> 100 µM	–	> 100 µM	–	> 100	–	> 100 µM	–	> 100	–	> 100 µM	–	> 100 µM	–	> 100 µM
CCCCCCNC(=O)Oc1ccc(/C(=C(/C)Cc2ccc(OC)cc2)c2ccc(OCCN(C)C)cc2)cc1	3.82 µM	8.43 µM	1.35 µM	5.37	4.82	10.3 µM	3.61 µM	7.9 µM	1.66 µM	5.96	4.49 µM	9.64 µM	1.1 µM	3.63	3.99 µM	8.53 µM	4.86 µM	9.59 µM	5.01 µM	9.64 µM
COc1ccc([C@@H](O)c2cc(-c3ncnc4cc(N5CCOCC5)ccc34)c(F)cc2Cl)nn1	2.85 µM	18.7 µM	3.5 µM	26.7	0.36	17.7 µM	6.22 µM	53.8 µM	0.865 µM	30.9	6.4 µM	55.8 µM	3.78 µM	> 100	0.371 µM	11.4 µM	6.78 µM	52.2 µM	2.13 µM	12.7 µM
N=c1ccc2nc3c(cc(N)c4ccccc43)oc-2c1	0.38 µM	1.31 µM	0.546 µM	3.28	0.147	0.733 µM	0.223 µM	0.664 µM	0.217 µM	1.71	0.169 µM	0.362 µM	0.298 µM	1.18	0.191 µM	0.654 µM	0.252 µM	0.754 µM	0.293 µM	1.05 µM
CC12CC=CCC1CCC1C2CCC2(C)C(c3ccc(=O)oc3)CCC12O (configuration not stated)	0.374 µM	3.37 µM	0.037 µM	0.303	0.0272	0.0732 µM	0.127 µM	0.337 µM	0.0747 µM	0.309	0.104 µM	0.364 µM	0.0967 µM	2.27	0.0604 µM	0.302 µM	0.0539 µM	0.366 µM	0.055 µM	0.184 µM
COC(=O)[C@]1(C)CCC[C@@]2(C)[C@@H]3C[C@@H]4[C@H]5C[C@@]3(CC[C@@H]21)C[C@@]45C	–	31 µM	–	45.7	–	17.8 µM	–	63.7 µM	–	29.3	–	37.3 µM	–	19.1	–	31.5 µM	–	62.6 µM	–	38.7 µM
O=C(N/N=C/c1ccc(Cl)cc1)c1[nH]c2ccc(Cl)cc2c1-c1ccccc1	0.326 µM	15.5 µM	0.0986 µM	–	0.107	0.393 µM	0.255 µM	4.68 µM	0.2 µM	44.8	17.8 µM	76.4 µM	0.206 µM	12.7	1.02 µM	> 51.2 µM	0.159 µM	> 100 µM	0.0947 µM	0.267 µM
CCCCNC(=O)Oc1ccc(/C(=C(/CC)Cc2ccccc2)c2ccc(OCCN3CCCCCC3)cc2)cc1	18.8 µM	38.8 µM	31.9 µM	93.5	16.5	40 µM	18.7 µM	35 µM	33.2 µM	> 100	18.2 µM	35.3 µM	16.7 µM	46.9	> 100 µM	> 100 µM	20.5 µM	42.5 µM	17 µM	31.3 µM
CNCCNc1nc2ccccc2c2c(=O)c3cc(F)ccc3sc12	1.7 µM	3.45 µM	1.68 µM	3.36	1.89	3.66 µM	1.63 µM	3.18 µM	1.52 µM	3.3	1.67 µM	3.1 µM	1.64 µM	4.35	1.58 µM	5.6 µM	1.66 µM	3.24 µM	1.71 µM	3.13 µM
COC(=O)c1cc(-c2ccc(OC)cc2)[nH]c1N/N=C/c1c(Cl)cccc1Cl	0.118 µM	0.536 µM	0.312 µM	3.39	0.235	0.574 µM	0.292 µM	1.82 µM	0.261 µM	3.78	0.316 µM	–	0.144 µM	6.65	0.161 µM	0.725 µM	0.26 µM	97.5 µM	0.172 µM	0.553 µM
Oc1c(CN2CCCC2)cc(CSCc2ccccc2)c2cccnc12	1.39 µM	11.9 µM	0.429 µM	10.2	0.554	2.77 µM	0.789 µM	11.9 µM	1.55 µM	14	2.04 µM	9.06 µM	0.551 µM	10.6	1.5 µM	15.9 µM	0.797 µM	11.2 µM	1.35 µM	3.93 µM
COC(=O)C(=O)C(C(=O)C(N)=O)c1nc2ccc(C(=O)c3ccccc3)cc2[nH]c1=O (configuration not stated)	–	> 100 µM	–	> 100	–	> 100 µM	–	> 100 µM	–	> 100	–	> 100 µM	–	> 100	–	> 100 µM	–	> 100 µM	–	> 100 µM
COc1cc(/C=C2\CN(C(=O)CCN3CCC(=NO)CC3)C/C(=C\c3cc(OC)c(OC)c(OC)c3)C2=O)cc(OC)c1OC	0.34 µM	0.724 µM	0.266 µM	1.6	0.298	1.05 µM	0.291 µM	1.01 µM	0.298 µM	1.12	0.211 µM	0.579 µM	0.301 µM	> 100	0.425 µM	2 µM	0.273 µM	0.86 µM	0.277 µM	0.928 µM
Cc1cnc(Nc2ccc(OCCN3CCCC3)cc2)nc1Nc1cccc(S(=O)(=O)NC(C)(C)C)c1	0.409 µM and 1.43 µM	4.43 µM and > 7.01 µM	0.398 µM and 1.3 µM	> 21.7	0.516	0.6 µM and 2.16 µM	0.808 µM and 1.35 µM	17.2 µM and > 10 µM	0.383 µM and 1.55 µM	> 51	0.894 µM and 2.45 µM	12.3 µM and > 6.36 µM	0.15 µM and 0.676 µM	> 33.6	0.0852 µM and 0.286 µM	0.686 µM and 1.76 µM	0.228 µM and 0.946 µM	3.54 µM and > 7.42 µM	0.332 µM and 1.52 µM	2.15 µM and 4.91 µM
O=C1C(Cl)=C(c2ccc([N+](=O)[O-])cc2)C(=O)c2c(O)cccc21	–	6.24 µM	–	> 100	–	> 100 µM	–	2.22 µM	–	7.28	–	4.49 µM	–	> 100	–	7.13 µM	–	3.66 µM	–	1.13 µM
Nc1cc2[nH]cnc2c(=O)[nH]1	–	> 300 µM	–	> 300	–	178 µM	–	> 300 µM	–	> 300	–	298 µM	–	> 300	–	> 300 µM	–	> 300 µM	–	> 234 µM
CCC[CH2][Sn]1([CH2]CCC)[O]C(=O)c2ccc(N)cc2[O]1	0.855 µM	2.48 µM	0.0357 µM	1.85	0.105	1.67 µM	0.471 µM	1.81 µM	0.985 µM	2.23	0.144 µM	1.18 µM	0.111 µM	8.5	0.116 µM	1.84 µM	0.224 µM	1.09 µM	0.691 µM	1.94 µM

— PubChem BioAssay (NCI)
